Reference: PubChem BioAssay (NCI)
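In this assay, cells in 96-well plates receive the compound at five concentrations for 48 hours. Endpoints are linearly interpolated between the surrounding concentrations. At the GI50, growth is halved. Definition used: TGI = concentration required for complete inhibition of growth.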

Columns and labels:
Assay in all cases: DTP human tumour cell line panel, 48 h; in the data active means GI50 below about 0.43 µM; inactive means the rest
786-0 renal = test system: 786-0 renal
A498 renal = test system: A498 renal
A549 NSCLC = test system: A549 NSCLC
ACHN renal = test system: ACHN renal
BT-549 breast = test system: BT-549 breast
CAKI-1 renal = test system: CAKI-1 renal
CCRF-CEM leukemia = test system: CCRF-CEM leukemia
COLO 205 colon = test system: COLO 205 colon
DU-145 prostate = test system: DU-145 prostate
EKVX NSCLC = test system: EKVX NSCLC
HCC-2998 colon = test system: HCC-2998 colon
HCT-116 colon = test system: HCT-116 colon
HCT-15 colon = test system: HCT-15 colon
HL-60(TB) leukemia = test system: HL-60(TB) leukemia
HOP-62 NSCLC = test system: HOP-62 NSCLC
HOP-92 NSCLC = test system: HOP-92 NSCLC
HS 578T breast = test system: HS 578T breast
HT29 colon = test system: HT29 colon
IGROV1 ovarian = test system: IGROV1 ovarian
K-562 leukemia = test system: K-562 leukemia
KM12 colon = test system: KM12 colon
LOX IMVI melanoma = test system: LOX IMVI melanoma
M14 melanoma = test system: M14 melanoma
MALME-3M melanoma = test system: MALME-3M melanoma
MCF7 breast = test system: MCF7 breast
MDA-MB-231 breast = test system: MDA-MB-231 breast
MDA-MB-435 = test system: MDA-MB-435
MOLT-4 leukemia = test system: MOLT-4 leukemia
NCI-H226 lung = test system: NCI-H226 lung
NCI-H23 lung = test system: NCI-H23 lung
NCI-H460 lung = test system: NCI-H460 lung
NCI-H522 lung = test system: NCI-H522 lung
OVCAR-3 ovarian = test system: OVCAR-3 ovarian
OVCAR-4 ovarian = test system: OVCAR-4 ovarian
OVCAR-8 ovarian = test system: OVCAR-8 ovarian
PC-3 prostate = test system: PC-3 prostate
RPMI-8226 leukemia = test system: RPMI-8226 leukemia
RXF 393 renal = test system: RXF 393 renal
SF-268 CNS = test system: SF-268 CNS
SF-295 CNS = test system: SF-295 CNS
SF-539 CNS = test system: SF-539 CNS
SK-MEL-2 melanoma = test system: SK-MEL-2 melanoma
SK-MEL-28 melanoma = test system: SK-MEL-28 melanoma
SK-MEL-5 melanoma = test system: SK-MEL-5 melanoma
SK-OV-3 ovarian = test system: SK-OV-3 ovarian
SN12C renal = test system: SN12C renal
SNB-19 CNS = test system: SNB-19 CNS
SNB-75 CNS = test system: SNB-75 CNS
SR leukemia = test system: SR leukemia
SW-620 colon = test system: SW-620 colon
T-47D breast = test system: T-47D breast
TK-10 renal = test system: TK-10 renal
U251 CNS = test system: U251 CNS
UACC-257 melanoma = test system: UACC-257 melanoma
UACC-62 melanoma = test system: UACC-62 melanoma
UO-31 renal = test system: UO-31 renal

Nc1nc(N(Cc2ccccc2)c2ccccc2)c2cn[nH]c2n1
inactive: GI50 (786-0 renal) 4.63 µM | GI50 (A498 renal) 3.03 µM | GI50 (A549 NSCLC) 5.47 µM | GI50 (ACHN renal) 5 µM | GI50 (BT-549 breast) 3.95 µM | GI50 (CAKI-1 renal) 3.67 µM | GI50 (CCRF-CEM leukemia) 4.32 µM | GI50 (COLO 205 colon) 2.9 µM | GI50 (DU-145 prostate) 4.57 µM | GI50 (EKVX NSCLC) 3.57 µM | GI50 (HCC-2998 colon) 6.41 µM | GI50 (HCT-116 colon) 3.19 µM | GI50 (HCT-15 colon) 4.24 µM | GI50 (HL-60(TB) leukemia) 1.57 µM | GI50 (HOP-62 NSCLC) 3.47 µM | GI50 (HOP-92 NSCLC) 1.42 µM | GI50 (HS 578T breast) 2.7 µM | GI50 (HT29 colon) 3.54 µM | GI50 (IGROV1 ovarian) 4.16 µM | GI50 (K-562 leukemia) 2.49 µM | GI50 (KM12 colon) 3.23 µM | GI50 (LOX IMVI melanoma) 3.91 µM | GI50 (M14 melanoma) 5.22 µM | GI50 (MALME-3M melanoma) 4.23 µM | GI50 (MCF7 breast) 4.34 µM | GI50 (MDA-MB-231 breast) 6.41 µM | GI50 (MDA-MB-435) 2.63 µM | GI50 (MOLT-4 leukemia) 3.21 µM | GI50 (NCI-H226 lung) 6.35 µM | GI50 (NCI-H23 lung) 6.06 µM | GI50 (NCI-H460 lung) 4.39 µM | GI50 (NCI-H522 lung) 2.62 µM | GI50 (OVCAR-3 ovarian) 3.34 µM | GI50 (OVCAR-4 ovarian) 6.37 µM | GI50 (OVCAR-8 ovarian) 6.01 µM | GI50 (PC-3 prostate) 4.56 µM | GI50 (RPMI-8226 leukemia) 1.68 µM | GI50 (RXF 393 renal) 2.93 µM | GI50 (SF-268 CNS) 4.21 µM | GI50 (SF-295 CNS) 2.87 µM | GI50 (SF-539 CNS) 2.95 µM | GI50 (SK-MEL-2 melanoma) 3.14 µM | GI50 (SK-MEL-28 melanoma) 16.9 µM | GI50 (SK-MEL-5 melanoma) 3.04 µM | GI50 (SK-OV-3 ovarian) 3.73 µM | GI50 (SN12C renal) 5.71 µM | GI50 (SNB-19 CNS) > 100 µM | GI50 (SNB-75 CNS) 2.47 µM | GI50 (SR leukemia) 1.3 µM | GI50 (SW-620 colon) 3.93 µM | GI50 (T-47D breast) 4.34 µM | GI50 (TK-10 renal) 4.72 µM | GI50 (U251 CNS) 4.35 µM | GI50 (UACC-257 melanoma) 9.84 µM | GI50 (UACC-62 melanoma) 4.32 µM | GI50 (UO-31 renal) 1.8 µM
5.64 µM: TGI (SR leukemia)
> 100 µM: TGI (786-0 renal) | TGI (A549 NSCLC) | TGI (ACHN renal) | TGI (BT-549 breast) | TGI (CAKI-1 renal) | TGI (CCRF-CEM leukemia) | TGI (COLO 205 colon) | TGI (DU-145 prostate) | TGI (EKVX NSCLC) | TGI (HCC-2998 colon) | TGI (HCT-116 colon) | TGI (HCT-15 colon) | TGI (HOP-62 NSCLC) | TGI (HOP-92 NSCLC) | TGI (HT29 colon) | TGI (IGROV1 ovarian) | TGI (K-562 leukemia) | TGI (KM12 colon) | TGI (LOX IMVI melanoma) | TGI (M14 melanoma) | TGI (MALME-3M melanoma) | TGI (MCF7 breast) | TGI (MDA-MB-231 breast) | TGI (MDA-MB-435) | TGI (MOLT-4 leukemia) | TGI (NCI-H226 lung) | TGI (NCI-H23 lung) | TGI (NCI-H460 lung) | TGI (NCI-H522 lung) | TGI (OVCAR-4 ovarian) | TGI (OVCAR-8 ovarian) | TGI (PC-3 prostate) | TGI (RPMI-8226 leukemia) | TGI (SF-268 CNS) | TGI (SF-539 CNS) | TGI (SK-MEL-2 melanoma) | TGI (SK-MEL-28 melanoma) | TGI (SK-MEL-5 melanoma) | TGI (SK-OV-3 ovarian) | TGI (SN12C renal) | TGI (SNB-19 CNS) | TGI (SNB-75 CNS) | TGI (SW-620 colon) | TGI (T-47D breast) | TGI (TK-10 renal) | TGI (U251 CNS) | TGI (UACC-257 melanoma) | TGI (UACC-62 melanoma) | TGI (UO-31 renal)
41.1 µM: TGI (OVCAR-3 ovarian)
6.6 µM: TGI (HL-60(TB) leukemia)
7.91 µM: TGI (HS 578T breast)
9.23 µM: TGI (A498 renal)
62.4 µM: TGI (SF-295 CNS)
22 µM: TGI (RXF 393 renal)
